Assays:
RDLbdI/V = RDLbdI/V (Drosophila melanogaster, UniProt P25123, I283V); test: cell-based
RDLbdI/VA^301S = RDLbdI/VA^301S (Drosophila melanogaster, UniProt P25123, A301S/I283V); test: cell-based
Sequence of RDLbdI/VA^301S (P25123 45-606 I283V/A301S): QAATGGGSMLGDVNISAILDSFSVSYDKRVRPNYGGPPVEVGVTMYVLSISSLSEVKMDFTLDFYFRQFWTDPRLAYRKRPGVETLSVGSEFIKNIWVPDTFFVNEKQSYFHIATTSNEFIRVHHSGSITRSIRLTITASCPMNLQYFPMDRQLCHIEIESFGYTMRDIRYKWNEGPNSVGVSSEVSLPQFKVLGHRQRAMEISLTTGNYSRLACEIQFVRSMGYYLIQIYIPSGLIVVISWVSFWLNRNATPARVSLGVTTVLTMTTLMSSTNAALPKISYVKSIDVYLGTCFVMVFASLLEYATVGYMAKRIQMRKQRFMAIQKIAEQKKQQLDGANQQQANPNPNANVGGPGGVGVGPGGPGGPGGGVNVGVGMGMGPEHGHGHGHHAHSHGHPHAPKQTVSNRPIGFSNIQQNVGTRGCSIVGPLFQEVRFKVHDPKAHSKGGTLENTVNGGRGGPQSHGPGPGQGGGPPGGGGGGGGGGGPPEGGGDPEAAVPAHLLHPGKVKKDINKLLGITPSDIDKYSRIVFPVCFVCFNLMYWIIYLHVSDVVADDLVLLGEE

Sequence of RDLbdI/V (P25123 45-606 I283V): as the sequence (P25123 45-606 I283V/A301S) above, with S257A counted along it

| SMILES | IC50 (RDLbdI/V) [µM] | IC50 (RDLbdI/VA^301S) [µM] | EC50 (RDLbdI/V) [µM] |
| --- | --- | --- | --- |
| CC[C@H](C)[C@H]1O[C@]2(CC[C@@H]1C)C[C@@H]1C[C@@H](C/C=C(\C)[C@@H](O[C@H]3C[C@H](OC)[C@@H](O[C@H]4C[C@H](OC)[C@@H](O)[C@H](C)O4)[C@H](C)O3)[C@@H](C)/C=C/C=C3\CO[C@@H]4[C@H](O)C(C)=C[C@@H](C(=O)O1)[C@]34O)O2 [IVM, ivermectin] | 0.468 | 1.2 | – |
| NC/C=C/C(=O)O [TACA, trans-4-aminocrotonic acid] | – | – | 263 |
| NCc1cc(=O)[nH]o1 [muscimol] | – | – | 95.5 |
| NCCC(=O)O [β-alanine] | – | – | 3090 |

Source: article PMC4019635 (PLoS ONE, 2014)
